Four compounds from patent publication EP1210336B1, “SUBSTITUTED BENZIMIDAZOLES AS NON-NUCLEOSIDE INHIBITORS OF REVERSE TRANSCRIPTASE” (THE UNITED STATES OF AMERICA, as represented by the …, priority 1999, dated 2001) can be followed below.

Values joined by “and” are separate entries in the source; they are usually repeats but may differ in a detail not shown here. Equal values may be shown once. Read-outs that look alike come from different tables or passages of the source.

One test relates to NL4-3 (WT). Description: Cytopathic cell killing assay, cross-resistance profile, infected MT-4 cells. It counts as cell-based, HIV-1. An excerpt:
(§1) The various HIV isolates tested in the Figures are those corresponding to wild-type virus (NL4-3) and the other strains listed by their RT mutations. The three 4xAZT isolates included in the Figures represent AZT drug-resistant variants. For example, the 4xAZT/L100I isolate has five mutations: four mutations confer increased resistance to AZT, and the other mutation is located within the NNRTI binding pocket. TZB and nevir. (nevirapine) are two well-known NNRTIs, included in this experiment for comparison purposes. […]
(§2) In this Example, the antiviral and cellular toxicity of NNRTIs was investigated, using the cytopathic cell killing assay described by Yang (Yang et al., "Characteristics of a Group of Non-nucleoside Reverse Transcriptase Inhibitors with Structural Diversity and Potent Anti-Human Immunodeficiency Virus Activity," Leukemia 9:S75-S85 [1995]). Briefly, in this method cells (e.g., the CEM-SS cell line, available from the NIAID AIDS Research and Reference Program [ARRRP]) were seeded at a density of 5 x 10^3 cells/well, into the wells of a 96-well microtiter plate. The cells were then infected with HIV virus (either mutant or WT), at a multiplicity of infection (MOI) previously determined to provide complete cell killing by 6 days of culture post-infection (e.g., MOI of 0.01-0.05). Each of the HIV isolates was pre-titered to induce equivalent levels of infection based on cell killing or virus production, prior to their use in these assays. A range of test compound concentrations was added to the wells in triplicate (e.g., serial half-log dilutions) to evaluate inhibition of HIV infection. Controls for each assay included drug controls (drug colorimetric control wells), drug cytotoxicity control wells (cells with drug), virus control wells (cells with virus), and cell viability controls (cells only). Positive control drugs (e.g., AZT and ddC) were also run in parallel.
(§3) After six days of incubation at 37°C, cell viability was determined spectrophotometrically at 450 nm for each well, using the metabolic reduction of XTT to a soluble colored formazan. (See, Gartner and Popovic, "Virus Isolation and Production, in Aldovini and Walker (eds.), Techniques in HIV Research, Stockton Press, NY, pp. […] [1991]; and Nara and Fischinger, "Quantitative Infectivity Assay for HIV-1 and HIV-2," Nature 332:469-470 [1988]).
(§4) The in vitro therapeutic index (TI50) was defined as the fold-difference between the EC50 and IC50. The results for the various compounds are included in Figures 8 and 19.
A general note: Damage to the host cells serves as the signal in cytopathic effect assays.

A further test concerns HIV-1 variant Y181C. Described as above. It counts as cell-based. The following applies: isolate Y181C.
Excerpt: as §1, §2, §3, §4

Another test deals with HIV-1 variant L100I. The description is as above. The test is classed as cell-based.
Excerpt: as §1, §2, §3, §4

The next test has as its system HIV-1 variant V106A. The description is as above. The test is classed as cell-based.
Excerpt: as §1, §2, §3, §4

The subject of the next test is HIV-1 variant Y188C. Described as above. It counts as cell-based.
Excerpt: as §1, §2, §3, §4

The next test has as its system HIV-1 variant K103N. The description is as above. The test is classed as cell-based. The following applies: for EC50: isolate K103N.
Excerpt: as §1, §2, §3, §4

Another test concerns HIV-1 variant V179D. The test is described as above. The test is classed as cell-based. The note with it: isolate V179D.
Excerpt: as §1, §2, §3, §4

Another test deals with HIV-1 variant L74V. Described as above. The test is classed as cell-based.
Excerpt: as §1, §2, §3, §4

The next test concerns HIV-1 variant A98G. The description is as above. The test is classed as cell-based.
Excerpt: as §1, §2, §3, §4

For the next test, the system named is HIV-1 variant V108I. The test is described as above. The test is classed as cell-based.
Excerpt: as §1, §2, §3, §4

In a further test the test system is HIV-1 variant K101E. The test is described as above. The test is classed as cell-based.
Excerpt: as §1, §2, §3, §4

A further test deals with WT virus (NL4-3). The experiment in a line: microbe, parasite or virus in culture. The test is classed as cell-based, HIV-1. The note with it: read-out: EC50. On the procedure:
Evaluation of these compounds for the inhibition of HIV-1 was determined as the fifty percent cell culture inhibitory concentration (CIC50) in CEMSS cell culture with WT virus (NL4-3).
as §2, §3, §4

The next test concerns the target T1, HIV-1 WT RT (Human immunodeficiency virus type 1 group M subtype B, UniProt P03366).
T1 construct: purified RT protein (0.015 mg/mL) was incubated in a 100 µL reaction mixture
The experiment in a line: biochemical. The following applies: for IC50: read-out: IC50.

The test system of the next test is HIV-1 isolate 4xAZT. The experiment in a line: Cytopathic cell killing assay, cross-resistance profile, infected MT-4 cells. The following applies: isolate 4XAZT. The test is classed as cell-based.
Excerpt: as §1, §2, §3, §4

Test [1] concerns HIV-1 isolate 4xAZT/Y181C. The description is as above. The test is classed as cell-based. The following applies: isolate 4XAZT /Y181C.
Excerpt: as §1, §2, §3, §4

Where [2] appears, read: Table 10 (values in µM), read-out: EC50.
Where [3] appears, read: Table 11, CEMSS/NL4-3, NRVC = reduction in viral CPE not seen (footnote).
Where [4] appears, read: Human immunodeficiency virus 1, MT4, Table 10 (values in µM).
Setting [5] is: Human immunodeficiency virus 1, NL43, CEM-SS, Table 11, CEMSS/NL4-3, NRVC = reduction in viral CPE not seen (footnote).
Where [6] appears, read: Human immunodeficiency virus 1, MT4, Table 9.
Setting [7] is: Human immunodeficiency virus 1, MT4, Table 8.

As to “1-(2,6-difluorobenzyl)-2-(2,6-difluorophenyl)-4-acetamidobenzimidazole [compound 56]”, the half-maximal effective concentration (EC50) was 1.6 µM with NL4-3 (WT) (Table 8, isolate N1.43, read-out: EC50); 1.97 µM in the test on NL4-3 (WT) (Table 10 (values in µM), isolate NL4-3 (WT), read-out: EC50); greater than 100 µM in the test on HIV-1 variant Y181C (setting [2]); 2.1 µM in the test on HIV-1 variant L100I (Table 8, isolate 1.1001, read-out: EC50); 3.25 µM in the test on HIV-1 variant L100I (Table 10 (values in µM), isolate L1001, read-out: EC50); greater than 20000 nM with HIV-1 variant V106A (Table 8, isolate V 106A, read-out: EC50). Besides, the EC50 in the test with HIV-1 variant Y188C (Table 8, isolate Y 188C, read-out: EC50) is greater than 10 µM; in the test with HIV-1 variant K103N (Table 8, read-out: EC50) it was greater than 20 µM; in the test with HIV-1 variant K103N (setting [2]), greater than 100 µM; with HIV-1 variant V179D (Table 8, read-out: EC50), greater than 10000 nM; with HIV-1 variant L74V (Table 8, isolate 1.74V, read-out: EC50), 1200 nM; in the test with HIV-1 variant A98G (Table 8, isolate A9SG, read-out: EC50) it was 4300 nM. In addition, the EC50 was 5.3 µM with HIV-1 variant V108I (Table 8, isolate V1081, read-out: EC50); greater than 20 µM in the test with HIV-1 variant K101E (Table 8, isolate K101E, read-out: EC50); 1480 nM in the test on WT virus (NL4-3) (Table 7, concentration reducing cell killing or virus production by 50%, HIV-1 WT); 1480 nM in the test with WT virus (NL4-3) (setting [3]). The IC50 at HIV-1 WT RT (Table 7, HIV-1 WT RT) came out at 54700 nM; at HIV-1 WT RT (Table 11, WT RT) it was 54700 nM. At HIV-1 WT RT (Table 7, WT HIV-1 RT, 1 µM drug), the “%inhibn (1µM)” value came to 24%.

In the case of `Fc1cccc(F)c1Cn1c(-c2c(F)cccc2F)nc2c(Br)cccc21` [compound 54, 4-bromo-1-(2,6-difluorobenzyl)-2-(2,6-difluorophenyl)benzimidazole], the concentration for a half-maximal effect (EC50) with NL4-3 (WT) (Human immunodeficiency virus 1, NL43, MT4, Table 10 (values in µM), isolate NL4-3 (WT)) is 0.5 µM; with HIV-1 variant Y181C (setting [4]), 10.7 µM; with HIV-1 variant L100I (Human immunodeficiency virus 1, MT4, Table 10 (values in µM), isolate L1001), 0.5 µM; with HIV-1 variant Y188C (Human immunodeficiency virus 1, MT4, Table 10 (values in µM), isolate Y188C), 3.7 µM; in the test on HIV-1 variant K103N (setting [4]), greater than 20 µM; in the test on HIV-1 variant V108I (Human immunodeficiency virus 1, MT4, Table 10 (values in µM), isolate V108l), 4.2 µM. The half-maximal effective concentration (EC50) in the test with HIV-1 variant K101E (Human immunodeficiency virus 1, MT4, Table 10 (values in µM), isolate K101E) was greater than 20 µM; in the test on WT virus (NL4-3) (Human immunodeficiency virus 1, NL43, CEM-SS, Table 7, concentration reducing cell killing or virus production by 50%, HIV-1 WT) it was 370 nM; in the test with WT virus (NL4-3) (setting [5]), 370 nM. Further, the inhibition at 1 µM amounted to 78% at HIV-1 WT RT (Table 6, WT HIV-1 RT, 1 µM drug, average of two experiments done in triplicates, read-out: %Inhibn (1µM)) and 78% on HIV-1 WT RT (Table 7, WT HIV-1 RT, 1 µM drug, read-out: %inhibn (1µM)). Also, the IC50 at HIV-1 WT RT (Table 7, HIV-1 WT RT) amounted to 1610 nM; at HIV-1 WT RT (Table 11, WT RT), 1610 nM.

Take `[N-]=[N+]=NCc1cccc2c1nc(-c1c(F)cccc1F)n2Cc1c(F)cccc1F` [compound 70, 1-(2,6-difluorobenzyl)-2-(2,6-difluorophenyl)benzimidazol-4-yl-azidomethyl]: the EC50 is 0.045 µM and 0.06 µM with NL4-3 (WT) (Table 10 (values in µM), isolate NL4-3 (WT), listed as CH2-N3, read-out: EC50); 0.82 µM in the test on HIV-1 variant Y181C (setting [2]); 0.22 µM with HIV-1 variant Y188C (Table 10 (values in µM), isolate Y188C, read-out: EC50); 1.48 µM with HIV-1 variant K103N (setting [2]); 0.026 µM with HIV-1 variant V108I (Table 10 (values in µM), isolate V108l, read-out: EC50); 0.6 µM with HIV-1 variant K101E (Table 10 (values in µM), isolate K101E, read-out: EC50). Moreover, the EC50 in the test with WT virus (NL4-3) (setting [3]) was determined as 45 nM.

Regarding `Cc1ccnc2c1NC(=O)c1cccnc1N2C1CC1` [nevirapine, reference compound], the EC50 was 0.04 µM in the test on NL4-3 (WT) (Human immunodeficiency virus 1, NL43, MT4, Table 8, isolate N1.43); 0.04 µM with NL4-3 (WT) (Human immunodeficiency virus 1, NL43, MT4, Table 9, isolate NL4.3); 4.9 µM in the test with HIV-1 variant Y181C (setting [6]); 0.2 µM in the test with HIV-1 variant L100I (Human immunodeficiency virus 1, MT4, Table 8, isolate 1.1001); 0.2 µM in the test on HIV-1 variant L100I (Human immunodeficiency virus 1, MT4, Table 9, isolate L1001); greater than 500 nM in the test on HIV-1 isolate 4xAZT (setting [7]). The EC50 was greater than 500 nM in the test on HIV-1 isolate 4xAZT (setting [6]); greater than 10000 nM in the test with HIV-1 variant V106A (Human immunodeficiency virus 1, MT4, Table 8, isolate V 106A); greater than 10000 nM in the test with HIV-1 variant V106A (Human immunodeficiency virus 1, MT4, Table 9, isolate V106A); 3000 nM in [1] (setting [7]); 3000 nM in [1] (setting [6]); greater than 0.5 µM in the test on HIV-1 variant Y188C (Human immunodeficiency virus 1, MT4, Table 8, isolate Y 188C). The EC50 with HIV-1 variant Y188C (Human immunodeficiency virus 1, MT4, Table 9, isolate Y188C) was greater than 0.5 µM; in the test on HIV-1 variant K103N (setting [7]), greater than 10 µM; in the test on HIV-1 variant K103N (setting [6]) it was greater than 10 µM; in the test with HIV-1 variant V179D (setting [7]), 4900 nM; in the test on HIV-1 variant V179D (setting [6]), 200 nM; in the test on HIV-1 variant L74V (Human immunodeficiency virus 1, MT4, Table 8, isolate 1.74V), 40 nM. Moreover, the EC50 with HIV-1 variant L74V (Human immunodeficiency virus 1, MT4, Table 9, isolate 1.74 V) was found to be 40 nM; in the test on HIV-1 variant A98G (Human immunodeficiency virus 1, MT4, Table 8, isolate A9SG) it was 800 nM; in the test on HIV-1 variant A98G (Human immunodeficiency virus 1, MT4, Table 9, isolate A98G), 800 nM; in the test on HIV-1 variant V108I (Human immunodeficiency virus 1, MT4, Table 8, isolate V1081), 0.4 µM; with HIV-1 variant V108I (Human immunodeficiency virus 1, MT4, Table 9, isolate V1081) it was 0.4 µM; with HIV-1 variant K101E (Human immunodeficiency virus 1, MT4, Table 8, isolate K101E) it was 1.1 µM. Moreover, the EC50 in the test on HIV-1 variant K101E (Human immunodeficiency virus 1, MT4, Table 9, isolate KIOIE) came to 1.1 µM; in the test on WT virus (NL4-3) (setting [5]) it was 35 nM. Besides, the “activity against the K103N mutation / isolate” value in the test with HIV-1 variant K103N (result in words, cytopathic cell killing assay) is “ineffective”.

As usually defined, the EC50 is the concentration at which the effect is half-maximal. For orientation: IC50 means the midpoint of a concentration-inhibition curve.
